The source of these data is PMC4824854, “Predictions of Cleavability of Calpain Proteolysis by Quantitative Structure-Activity Relationship Analysis Using Newly Determined Cleavage Sites and Catalytic Efficiencies of an Oligopeptide Array” (Molecular & Cellular Proteomics : MCP, 2016).

“Also recorded” adds a separate entry of the source.

Experiment [1] deals with calpains. To be noted: cited from earlier work. The source says: This activity is mainly achieved by an ∼10^4-fold increase in the kcat without a significant change in the Km ([39]), by an unknown mechanism. Although this amidase-like calpain activity may be involved in as-yet-unknown physiological functions, there has been no further report on it.
For experiment [2], the target named is T1, C1 (Merck Millipore #208712) (Sus scrofa, UniProt P35750).
T1 construct: purchased Merck Millipore 208712
T1 sequence (P35750 1-714): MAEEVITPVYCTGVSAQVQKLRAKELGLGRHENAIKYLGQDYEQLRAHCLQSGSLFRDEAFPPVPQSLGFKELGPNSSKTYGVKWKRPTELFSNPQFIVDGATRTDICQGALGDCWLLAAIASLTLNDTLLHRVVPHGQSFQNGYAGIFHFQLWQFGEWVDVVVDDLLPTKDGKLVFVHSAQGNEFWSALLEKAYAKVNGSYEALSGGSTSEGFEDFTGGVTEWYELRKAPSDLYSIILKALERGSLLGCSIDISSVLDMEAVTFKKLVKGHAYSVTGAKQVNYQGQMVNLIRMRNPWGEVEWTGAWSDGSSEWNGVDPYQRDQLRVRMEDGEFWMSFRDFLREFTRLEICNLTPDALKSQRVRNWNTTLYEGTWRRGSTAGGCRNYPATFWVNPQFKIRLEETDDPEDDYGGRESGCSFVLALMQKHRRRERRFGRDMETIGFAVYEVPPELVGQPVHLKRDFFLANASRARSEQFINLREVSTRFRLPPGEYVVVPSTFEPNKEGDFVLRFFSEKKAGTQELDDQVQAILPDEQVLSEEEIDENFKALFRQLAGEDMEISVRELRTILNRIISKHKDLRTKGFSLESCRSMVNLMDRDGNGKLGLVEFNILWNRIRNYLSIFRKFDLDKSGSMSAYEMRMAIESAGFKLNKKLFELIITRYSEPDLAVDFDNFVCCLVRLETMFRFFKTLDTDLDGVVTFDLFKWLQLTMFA
T1 sequence (P04574 1-266 partner): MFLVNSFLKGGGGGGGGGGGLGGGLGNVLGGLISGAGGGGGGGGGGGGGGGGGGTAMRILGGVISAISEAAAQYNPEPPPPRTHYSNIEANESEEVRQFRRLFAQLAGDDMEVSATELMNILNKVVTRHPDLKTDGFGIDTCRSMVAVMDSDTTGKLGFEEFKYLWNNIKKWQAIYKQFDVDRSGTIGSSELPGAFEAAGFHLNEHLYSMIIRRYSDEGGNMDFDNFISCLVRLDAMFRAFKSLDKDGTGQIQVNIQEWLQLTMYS
The experiment in a line: Cleavage sites in whole proteins by N-terminal sequencing and MS/MS. The experiment is classed as biochemical. To be noted: C1 0.9 pmol, 100 mM Tris-HCl pH 7.5, 5 mM CaCl2, 30 °C, 20 min; peptide sequencing and LC-MS/MS. The procedure: Human heart troponin T2 (Merck 648484–100UGA, ca. 30 pmol) and horse myoglobin (Sigma-Aldrich, M0630, ca. 60 pmol) were digested with C1 (Merck Millipore #208712, 0.9 pmol) in 50 μl of 100 mM Tris-HCl (pH 7.5), 1 mM DTT, and 5 mM CaCl2 at 30 °C for 20 min. The digested samples were directly separated by SDS-PAGE, and the proteolyzed fragments were then blotted onto a PVDF membrane and subjected to peptide sequencing analysis (AproScience Inc., Tokushima, Japan). For sequence analysis by MS, the same digestion reactions were performed, terminated by adding a 3-fold volume of 7% TCA followed by incubation on ice for 30 min, spun (20,000 × g, 2 °C, 10 min), and the supernatant was collected. An aliquot of the soluble fraction was desalted and concentrated to a few μl using Zip-Tip C-18, and analyzed by Sciex 5600^+ with the Eksigent nanoLC system. The samples were analyzed in triplicate, the data were merged, and the peptide sequences were identified using ProteinPilot (Ver. 4.5) and Swiss-Prot DB (2015_08; 549,008 sequences; 195,692,017 aars) using the default parameters.

Take RPKPQQFFGLM-NH2 [substance P]: the “kcat/Km for hydrolysis of the NH2 group at the C terminus (amidase-like activity)” value in experiment [1] is listed as 10^6 M^−1s^−1.

B1: horse myoglobin: horse myoglobin (Sigma-Aldrich, M0630; P68082) (protein, UniProt P68082 2-154, looked up)
Myoglobin: GLSDGEWQQVLNVWGKVEADIAGHGQEVLIRLFTGHPETLEKFDKFKHLKTEAEMKASEDLKKHGTVVLTALGGILKKKGHHEAELKPLAQSHATKHKIPIKYLEFISDAIIHVLHSKHPGDFGADAQGAMTKALELFRNDIAAKYKELGFQG
In the case of B1, the “calpain cleavage sites detected in the whole protein” value in experiment [2] is listed as “Lys^51/Thr^52; also recorded: Gly^152/Phe^153”.
